Our source for the mortality values is patent publication US20260008757A1, “N-(3-(AMINOMETHYL)-PHENYL)-5-(4-PHENYL)-5-(TRIFLUOROMETHYL)-4,5-DIHYDROISOXAZOL-3-AMINE DERIVATIVES AND SIMILAR COMPOUNDS AS PESTICIDES” (BASF SE, priority 2022, published 2026).

One may read the mortality as the share of the test organisms that died.

Bounds are passed on as bounds.

Common to all, as to format: in vivo
The test system of assay [1] is Spodoptera eridania. The experiment in a line: Southern Armyworm (Spodoptera eridania), 2nd instar larvae, on sprayed lima bean plants, comparative experiment. The settings on record: 96 h, 4 days after treatment, read-out: mortality in comparison with untreated controls. As to the method:
The active compounds were formulated by a Tecan liquid handler in 100% cyclohexanone as a 10,000-ppm solution supplied in tubes. The 10,000-ppm solution was serially diluted in 100% cyclohexanone to make interim solutions. These served as stock solutions for which final dilutions were made by the Tecan in 50% acetone:50% water (v/v) into 10 or 20 ml glass vials. A nonionic surfactant (Kinetic®) was included in the solution at a volume of 0.01% (v/v). The vials were then inserted into an automated electrostatic sprayer equipped with an atomizing nozzle for application to plants/insects. Lima bean plants (variety Sieva) were grown 2 plants to a pot and selected for treatment at the 1st true leaf stage. Test solutions were sprayed onto the foliage by an auto-mated electrostatic plant sprayer equipped with an atomizing spray nozzle. The plants were dried in the sprayer fume hood and then removed from the sprayer. Each pot was placed into perforated plastic bags with a zip closure. Ten to 11 armyworm larvae were placed into the bag and the bags zipped closed. Test plants were maintained in a growth room at about 25° C. and about 20-40% relative humidity for 4 days, avoiding direct exposure to fluorescent light (14:10 light:dark photoperiod) to prevent trapping of heat inside the bags. Mortality and reduced feeding were assessed 4 days after treatment, compared to untreated control plants.

Assay [2] has as its system Frankliniella occidentalis. Nature of the assay: Western Flower Thrips (Frankliniella occidentalis) mortality on treated cotton leaf discs, comparative experiment. The settings on record: foliar, 48 h, thrips mortality at 2 DAT, read-out: mortality in comparison with untreated controls. The protocol:
The active compounds were formulated by a Tecan liquid handler in 100% cyclohexanone as a 10,000 ppm solution supplied in tubes. The 10,000 ppm solution was serially diluted in 100% cyclohexanone to make interim solutions. These served as stock solutions for which final dilutions were made by the Tecan in 50% acetone:50% water (v/v) into 10 or 20 ml glass vials. A nonionic surfactant (Kinetic®) was included in the solution at a volume of 0.01% (v/v). The vials were then inserted into an automated electrostatic sprayer equipped with an atomizing nozzle for application to plants/insects. Small (˜2″ in height) cotton plants were sprayed with test compounds at concentrations ranging from 300 to 0.01 ppm in acetone/water through the automated VPS. After drying, cotton leaves were removed, and circular leaf discs (˜1 cm diameter) were punched from the treated surface and transferred to clean 20 mL scintillation vials. Ten Western flower thrips (FRANOC) were aspirated into each scintillation vial. The vials with the leaf discs and thrips were kept in an upright incubator at 25° C. and 50% relative humidity with a 14:10 light:dark photoperiod. Each treatment was replicated twice. Thrips mortality was assessed at 2 DAT (days after treatment), counting all thrips both dead and alive.

The test system of assay [3] is Anthonomus grandis. The experiment in a line: Boll weevil (Anthonomus grandis) egg and larval mortality, microtiter plate diet test. The settings on record: 120 h, egg and larval mortality after 5 days, read-out: mortality in comparison with untreated controls. As to the method: For evaluating control of boll weevil, the test unit consisted of 96-well-microtiter plates containing an insect diet and 5-10 A. grandis eggs.
The compounds were formulated using a solution containing 75% v/v water and 25% v/v DMSO. Different concentrations of formulated compounds were sprayed onto the insect diet at 5 μl, using a custom-built micro atomizer, at two replications.
After application, microtiter plates were incubated at about 25±1° C. and about 75±5% relative humidity for 5 days. Egg and larval mortality were then visually assessed.

In assay [4] the test system is Myzus persicae. The experiment in a line: Green Peach Aphid (Myzus persicae), mixed life stages, systemic artificial diet test. The settings on record: 72 h, aphid mortality after 3 days, read-out: mortality in comparison with untreated controls. From the text:
For evaluating control of Green Peach Aphid through systemic means the test unit consisted of 96-well-microtiter plates containing liquid artificial diet under an artificial membrane. The compounds were formulated using a solution containing 75% v/v water and 25% v/v DMSO. Different concentrations of formulated compounds were pipetted into the aphid diet, using a custom-built pipette, at two replications. After application, 5-8 adult aphids were placed on the artificial membrane inside the microtiter plate wells. The aphids were then allowed to suck on the treated aphid diet and incubated at about 23±1° C. and about 50±5% relative humidity for 3 days. Aphid mortality and fecundity was then visually assessed.

In assay [5] the test system is Heliothis virescens. Nature of the assay: Tobacco Budworm (Heliothis virescens) egg and larval mortality, microtiter plate diet test. The settings on record: 120 h, egg and larval mortality after 5 days, read-out: mortality in comparison with untreated controls. As to the method: For evaluating control of Tobacco Budworm, the test unit consisted of 96-well-microtiter plates containing an insect diet and 15-25 H. virescens eggs. The compounds were formulated using a solution containing 75% v/v water and 25% v/v DMSO. Different concentrations of formulated compounds were sprayed onto the insect diet at 10 μl, using a custom-built micro atomizer, at two replications. After application, microtiter plates were incubated at about 28±1° C. and about 80±5% relative humidity for 5 days. Egg and larval mortality was then visually assessed.

For the molecule `O=C(NCc1cc(NC2=NOC(c3cc(Cl)cc(Cl)c3)(C(F)(F)F)C2)ccc1F)C1CC1` (centres unmarked) [I-8], the mortality at 1 ppm in assay [1] was 80%. In addition, the mortality at 100 ppm in assay [2] worked out at 100%. The mortality at 800 ppm in assay [3], in assay [4] and in assay [5] (800 ppm) was at least 75% each time. In assay [5] (2500 ppm), the mortality at 2500 ppm was at least 75%.

In the case of `N#CC1(NC(=O)c2cc(NC3=NOC(c4cc(Cl)cc(Cl)c4)(C(F)(F)F)C3)ccc2F)CC1` (centres unmarked) [I-30 of WO2022/171472, reference compound], in assay [1], the mortality at 1 ppm is 0%. In assay [2], the mortality at 100 ppm is 19%.
